Reference: US12054487B2, “Muscarinic acetylcholine M1 receptor antagonists” (Contineum Therapeutics, Inc., priority 2018, dated 2024)

Legend:
Type in all cases: cell-based
human M1 receptor = biological target: T1, human M1 receptor (Homo sapiens, UniProt P11229); assay: In vitro functional assay of muscarinic acetylcholine receptor activity (aequorin calcium flux, antagonist mode vs EC80 acetylcholine), M1; details: CHO-K1 cells stably expressing human M1 receptor with Aequorin; decrease in EC80 acetylcholine response
T1 construct: host or cells: CHO-K1
T1 sequence (P11229 1-460): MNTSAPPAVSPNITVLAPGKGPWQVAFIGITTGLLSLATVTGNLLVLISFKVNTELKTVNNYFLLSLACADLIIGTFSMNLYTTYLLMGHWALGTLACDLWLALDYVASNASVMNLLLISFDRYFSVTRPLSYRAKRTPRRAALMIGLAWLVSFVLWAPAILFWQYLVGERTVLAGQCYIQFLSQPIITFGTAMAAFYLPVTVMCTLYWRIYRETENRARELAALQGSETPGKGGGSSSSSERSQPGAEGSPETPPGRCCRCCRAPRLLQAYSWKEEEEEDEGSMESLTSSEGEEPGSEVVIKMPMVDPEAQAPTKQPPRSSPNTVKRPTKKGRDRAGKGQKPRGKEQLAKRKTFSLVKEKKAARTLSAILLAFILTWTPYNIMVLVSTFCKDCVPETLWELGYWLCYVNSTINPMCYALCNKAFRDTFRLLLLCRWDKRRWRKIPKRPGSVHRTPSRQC
Summary of the method: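 Antagonism at M1 was measured as a concentration-dependent reduction of the EC80 acetylcholine-evoked aequorin luminescence, from which IC50 was derived. Human M1 CHO-K1 aequorin cells were first loaded with 5 uM coelenterazine h for 4 h and exposed to compound for 30 min at room temperature.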

M2 = biological target: T2, M2 (Homo sapiens, UniProt P08172); assay: In vitro functional assay of muscarinic acetylcholine receptor activity, M2; details: antagonist activity; M2 method not separately described
T2 sequence (P08172 1-466): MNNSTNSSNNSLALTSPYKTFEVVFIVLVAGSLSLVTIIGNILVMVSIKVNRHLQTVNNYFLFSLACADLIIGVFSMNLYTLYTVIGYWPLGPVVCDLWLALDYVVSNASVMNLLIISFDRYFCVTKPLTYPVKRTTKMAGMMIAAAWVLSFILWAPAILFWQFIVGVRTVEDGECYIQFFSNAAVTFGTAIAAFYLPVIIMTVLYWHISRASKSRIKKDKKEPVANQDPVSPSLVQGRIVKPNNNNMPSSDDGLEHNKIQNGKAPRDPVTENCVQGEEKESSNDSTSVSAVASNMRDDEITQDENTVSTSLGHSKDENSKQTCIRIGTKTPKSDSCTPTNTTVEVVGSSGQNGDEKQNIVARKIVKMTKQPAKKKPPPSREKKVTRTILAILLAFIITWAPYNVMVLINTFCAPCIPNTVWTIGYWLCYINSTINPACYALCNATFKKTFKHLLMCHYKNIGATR

M3 = M3 (Homo sapiens, UniProt P20309); assay: In vitro functional assay of muscarinic acetylcholine receptor activity, M3; details: antagonist activity; M3 method not separately described
Sequence of M3 (P20309 whole entry): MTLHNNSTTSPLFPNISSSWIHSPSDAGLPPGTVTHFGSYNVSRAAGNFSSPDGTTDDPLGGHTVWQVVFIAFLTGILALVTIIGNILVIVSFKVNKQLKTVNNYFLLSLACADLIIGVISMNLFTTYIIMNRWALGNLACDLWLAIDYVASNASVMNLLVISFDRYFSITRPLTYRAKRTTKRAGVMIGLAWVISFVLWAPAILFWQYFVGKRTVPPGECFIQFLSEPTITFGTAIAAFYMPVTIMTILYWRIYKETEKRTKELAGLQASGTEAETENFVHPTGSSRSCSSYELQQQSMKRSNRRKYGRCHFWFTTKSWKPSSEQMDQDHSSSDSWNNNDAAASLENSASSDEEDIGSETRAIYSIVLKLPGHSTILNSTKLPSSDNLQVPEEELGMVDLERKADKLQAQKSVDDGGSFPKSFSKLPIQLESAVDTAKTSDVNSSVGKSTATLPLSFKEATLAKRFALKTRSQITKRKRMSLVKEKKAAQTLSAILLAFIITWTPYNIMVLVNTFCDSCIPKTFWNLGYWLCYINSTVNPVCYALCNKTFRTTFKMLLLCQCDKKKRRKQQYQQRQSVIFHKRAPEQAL

**Q.** COc1cc(N2CCN3C(=O)[C@@H](CCCc4cccc5ncnn45)C[C@H]3C2)ccn1 [Example 37, (7S,8aS)-2-(2-methoxypyridin-4-yl)-7-(3-{[1,2,4]triazolo[1,5-a]pyridin-5-yl}propyl)-octahydropyrrolo[1,2-a]pyrazin-6-one] was tested. Which IC50 (human M1 receptor) did it give?
**A.** < 100 nM

**Q.** And the IC50 (M2)?
**A.** 1000 to 10000 nM

**Q.** What about the IC50 (M3) of the same compound?
**A.** 1000 to 10000 nM

**Q.** Which IC50 (human M1 receptor) does the source give for O=C1[C@@H](CCCc2cccc3ncsc23)C[C@@H]2CN(c3ccncc3F)CCN12 [Example 7, (7S,8aR)-7-(3-(benzo[d]thiazol-7-yl)propyl)-2-(3-fluoropyridin-4-yl)hexahydropyrrolo[1,2-a]pyrazin-6(2H)-one] here?
**A.** 1000 to 10000 nM

**Q.** What about the IC50 (M2) of the same compound?
**A.** 1000 to 10000 nM

**Q.** And the IC50 (M3)?
**A.** > 10000 nM

**Q.** Which results are given for O=C1C(CCCc2c(F)ccc3nccn23)C[C@H]2CN(c3ccc(F)cn3)CCN12 (stereo partly drawn) [Example 89, (8aS)-7-(3-(6-fluoroimidazo[1,2-a]pyridin-5-yl)propyl)-2-(5-fluoropyridin-2-yl)hexahydropyrrolo[1,2-a]pyrazin-6(2H)-one]?
**A.** IC50 (human M1 receptor): < 100 nM; IC50 (M2): 1000 to 10000 nM; IC50 (M3): 1000 to 10000 nM

**Q.** What does the source list for O=C1[C@@H](CCCc2cccc3ncsc23)C[C@H]2CN(c3ccncc3)CCN12 [Example 28, (7S,8aS)-7-(3-(benzo[d]thiazol-7-yl)propyl)-2-(pyridin-4-yl)hexahydropyrrolo[1,2-a]pyrazin-6(2H)-one]?
**A.** IC50 (human M1 receptor): < 100 nM; IC50 (M2): 100 to 1000 nM; IC50 (M3): 100 to 1000 nM

**Q.** Cc1nccnc1CCC[C@H]1C[C@H]2CN(c3ccc(C#N)cn3)CCN2C1=O [Example 57, 6-((7S,8aS)-7-(3-(3-methylpyrazin-2-yl)propyl)-6-oxohexahydropyrrolo[1,2-a]pyrazin-2(1H)-yl)nicotinonitrile] was tested. Which IC50 (human M1 receptor) did it give?
**A.** 1000 to 10000 nM

**Q.** What about the IC50 (M2) of the same compound?
**A.** 1000 to 10000 nM

**Q.** And the IC50 (M3)?
**A.** > 10000 nM

**Q.** Which IC50 (human M1 receptor) does the source give for O=C1[C@@H](CCCc2cccc3ncnn23)C[C@H]2CN(c3ccc(C(F)(F)F)cn3)CCN12 [Example 32, (7S,8aS)-7-(3-([1,2,4]triazolo[1,5-a]pyridin-5-yl)propyl)-2-(5-(trifluoromethyl)pyridin-2-yl)hexahydropyrrolo[1,2-a]pyrazin-6(2H)-one] here?
**A.** < 100 nM

**Q.** And the IC50 (M2)?
**A.** 100 to 1000 nM

**Q.** What about the IC50 (M3) of the same compound?
**A.** 1000 to 10000 nM

**Q.** With O=C1[C@@H](CCCc2cccc3ncnn23)C[C@H]2CN(c3ccc(OC(F)F)cn3)CCN12 [Example 39, (7S,8aS)-7-(3-([1,2,4]triazolo[1,5-a]pyridin-5-yl)propyl)-2-(5-(difluoromethoxy)pyridin-2-yl)hexahydropyrrolo[1,2-a]pyrazin-6(2H)-one] as the compound, how does the IC50 (human M1 receptor) read?
**A.** 100 to 1000 nM

**Q.** What about the IC50 (M2) of the same compound?
**A.** > 10000 nM

**Q.** And the IC50 (M3)?
**A.** 1000 to 10000 nM

**Q.** With O=C1[C@@H](CCCc2cccc3ncnn23)C[C@H]2CN(c3ccc(F)cc3)CCN12 [Example 47, (7S,8aS)-7-(3-([1,2,4]triazolo[1,5-a]pyridin-5-yl)propyl)-2-(4-fluorophenyl)hexahydropyrrolo[1,2-a]pyrazin-6(2H)-one] as the compound, how does the IC50 (human M1 receptor) read?
**A.** 100 to 1000 nM

**Q.** And the IC50 (M2)?
**A.** > 10000 nM

**Q.** What about the IC50 (M3) of the same compound?
**A.** > 10000 nM
